Consider four molecules from patent US20240041922A1, “METHODS AND COMPOSITIONS” (Monash University, priority 2020, published 2024).

For data set [1], the system named is larval zebrafish skeletal muscle. In words: Larval zebrafish muscle regeneration by birefringence imaging. It counts as in vivo. The note with it: larvae soaked in drug after needle stab injury. The method, then:
4dpf larvae were anaesthetized in 0.01% tricaine (MS-222) (Sigma-Aldrich) in Ringer's solution. Mechanical injures were targeted either to the dorsal or ventral myotome above the cloaca when the larvae is oriented dorsal to the top, anterior to the left. Needle-stick injury was carried out as previously described (Gurevich, D. B. el al. Asymmetric division of clonal muscle stem cells co-ordinate muscle regeneration in vivo. Science 353 6295 aad9969 (2016)). Briefly, the myotome was subjected to a single 30-gauge needle puncture that generates an extensive injury with many damaged muscle fibres. […]
Fixed and Immunostained cell culture samples were imaged on a Leica DMi8 inverted widefield microscope with a 10× objective. Birefringence imaging was carried out as previously described (Berger, J., Sztal, T. & Currie, P. D. Quantification of birefringence readily measures the level of muscle damage in zebrafish. Biochemical and biophysical research communications 423, 785-788 (2012)), using a Leica DM IRB upright microscope integrated with the Abrio software (CRI Hinds instruments) using a 5× objective. Images were analysed using the software Fiji^52, whereby the mean grey value of the injury site birefringence is normalised to the region before and after it to calculate relative birefringence of the wound site. […]

A further data set concerns PAX7+ satellite cells. In words: Primary mouse myoblast mono- and co-cultures, PAX7+ satellite cell proliferation (EdU). It counts as cell-based. The note with it: 100 nM inhibitor; for effect on macrophage-stimulated satellite cell proliferation: MB+macrophage co-culture; for effect on NAMPT-stimulated satellite cell proliferation: with hrNAMPT. The protocol:
Larvae: Labelling and detection was carried out as previously described (Nguyen, P. D. et al. Muscle stem cells undergo extensive clonal drift during tissue growth via Meox1-mediated induction of G2 cell-cycle arrest. […] Cell culture: Cells were incubated for 1 h in media supplemented with 10 μM EdU. […] Cells were processed using the Click-iTTM EdU Alexa FluroTM 647 imaging Kit (Thermo Fisher) following the manufacturer's protocol. For isolation of primary mouse myoblasts, limb skeletal muscle from E17.5 C57/BL6J mice were minced and digested in 0.125% Trypsin at 37° C. for 20 min. […] Myoblasts were again depleted for fibroblasts prior to co-culturing on gelatin-coated 48 well plates in DMEM+20% FBS+10% L929-conditioned medium. 100,000 myoblasts were plated with either 7,500 MafB/c-Maf deficient (Maf-DKO) macrophages (Aziz, A., Soucie, E., Sarrazin, […]. MafB/c-Maf deficiency enables self-renewal of differentiated functional macrophages. […] For drug treatments, the media were supplemented with appropriate doses and cultured for 24 h.

The subject of another data set is C2C12 myoblasts. In words: C2C12 myoblast proliferation (EdU incorporation). The class given is cell-based, mouse. Conditions: for effect on NAMPT-induced myoblast proliferation: co-administration with NAMPT, 6 h. The method, then: Larvae: Labelling and detection was carried out as previously described (Nguyen, P. D. et al. Muscle stem cells undergo extensive clonal drift during tissue growth via Meox1-mediated induction of G2 cell-cycle arrest. […] Cell culture: Cells were incubated for 1 h in media supplemented with 10 μM EdU. […] Cells were processed using the Click-iTTM EdU Alexa FluroTM 647 imaging Kit (Thermo Fisher) following the manufacturer's protocol. The mouse muscle cell line […]. Serial passaging and differentiation of myogenic cells isolated from dystrophic mouse muscle. Nature 270, 725 (1977) were cultured in growth media (Dulbecco's Modified Eagle Medium (4.5 g/l D-Glucose, No L Glutamine, No Sodium Pyruvate (Gibco))+20% Fetal Bovine Solution-One Shot (Gibco)+1% Glut Max 100x (Gibco)). Cells were maintained at 37° C., 5% CO2. Cells at 70% confluence, passage 8 were extracted from T75 flasks with 0.025% Tryspin EDTA (Gibco), neutralised in growth media, spun at 180×g for 5 min to pellet cells. The cells were then resuspended in 10 ml of fresh growth media. 500 μl of cells were plated on a 8-well on cover glass II (Sarstedt) chamber slide at a density of 1×10^3 cells/ml. Cells were left 4 h at 37° C. to re-attach. For drug treatments, the media were supplemented with appropriate doses and cultured for 6 h.

The subject of data set [2] is wound-resident muscle stem cells. As to the kind of experiment: Larval zebrafish needle stab muscle injury, wound site proliferation (EdU). It counts as in vivo. The note with it: needle stab injury, agent alone. The method, then:
4dpf larvae were anaesthetized in 0.01% tricaine (MS-222) (Sigma-Aldrich) in Ringer's solution. Mechanical injures were targeted either to the dorsal or ventral myotome above the cloaca when the larvae is oriented dorsal to the top, anterior to the left. Needle-stick injury was carried out as previously described (Gurevich, D. B. el al. Asymmetric division of clonal muscle stem cells co-ordinate muscle regeneration in vivo. Science 353 6295 aad9969 (2016)). Briefly, the myotome was subjected to a single 30-gauge needle puncture that generates an extensive injury with many damaged muscle fibres. For laser-induced injury, anaesthetised larvae were mounted in a thin layer of 1% low-melt agarose in Ringer's solution. Injuries were carried out using a UV-nitrogen laser pulsed through a coumarin 440 nm dye cell coupled to a Zeiss Axioplan microscope (MicroPoint Laser System, Andor Technology). On average a laser injury required pulses for 5-10 sec from laser beams focused through a 40× water immersion objective. For time-lapse analysis of the immediate response to injury, muscle fibre ablations were achieved using a SIM scanner (Olympus) at 790 nm and 200 msec dwell time at 100% laser power on an Olympus FVMPE-RS upright multi-photon microscope equipped with a 25×/1.05 water immersion objective. Injury-responding macrophages were tracked using the manual tracking plugin in Fiji.
(§1) Cell ablation was carried out as previously described (Pisharath, H. & Parsons, M. J. in Zebrafish 133-143 (Springer, 2009)) with minor modifications. Larvae at the appropriate stage were incubated in 5-10 mM metronidazole (Mtz) (Sigma-Aldrich) in Ringer's solution and daily refreshed until experimental end point. Drug treatments were carried out by incubating 4 dpf needle stick injured larvae in 5 and 10 μM cenicriviroc (CVC) (Med Chem Express) and 5 and 10 μM maraviroc (MVC) (Med Chem Express) in Ringer's solution immediately post injury and refreshed daily.
The effect of drug treatment on laser ablation muscle injury was assayed by treating larvae with 5 μM CVC for 2 h prior to injury and with larvae being maintained in the drug until experimental end point. […] Chemokine supplementation experiments were carried out in plasticware coated with 0.1% bovine serum albumin (BSA) overnight (rinsed in Ringer's solution prior to use) to minimise protein adsorption. Larvae were treated with 57 nM recombinant human visfatin (hrNAMPT(1)) (PeproTech), 57 nM recombinant murine CCL8/MCP-2 (mrCCL8) (PeproTech) and combinations with Mtz and CVC.
Larvae: Labelling and detection was carried out as previously described (Nguyen, P. D. et al. Muscle stem cells undergo extensive clonal drift during tissue growth via Meox1-mediated induction of G2 cell-cycle arrest. Cell Stem Cell 21, 107-119. e106 (2017))^55 with minor alteration. 6 dpf/2 dpi larvae were pulsed with 2.5 nM EdU (Thermo Fisher) for 1h and chased for a further 1.5 h prior to fixation. Cell culture: Cells were incubated for 1 h in media supplemented with 10 μM EdU. Following Edu pulse, C2C12 cells were fixed immediately, while primary mouse myoblast co-cultures were rinsed in PBS, replaced with media and incubated for a further 2 h following which the cells were fixed. Cells were processed using the Click-iT™ EdU Alexa Fluro™ 647 imaging Kit (Thermo Fisher) following the manufacturer's protocol.

The test system of a further data set is Nampt. In words: NAD+/NADH levels after Nampt enzymatic inhibition. The class given is in vivo, zebrafish. Conditions: 10 μM.
A further data set concerns macrophages. In words: Nitroreductase-mediated macrophage ablation by metronidazole, Tg(mpeg1:GAL4FF/UAS:NfsB-mCherry). It counts as in vivo, zebrafish. The method, then: as §1
The next data set relates to larval zebrafish. As to the kind of experiment: Tolerability of metronidazole in larval zebrafish. The class given is in vivo. Conditions: 10 mM Mtz. The method, then:
as §1

The next data set concerns mmp9+/mpeg+ macrophages. In words: Metronidazole ablation of mmp9-expressing macrophages, TgBAC(mmp9:EGFP-NTR). It counts as in vivo, zebrafish. The protocol: as §1
In order to more directly implicate Cluster 2 macrophages in the regulation of regenerative muscle stem cell proliferation, we specifically ablated these cells during the repair process, using an alternative mmp9 promoter-driven transgenic line that expressed the nitroreductase enzyme fused to EGFP (TgBAC(mmp9:EGFP-NTR)^24). These larvae were subjected to a needle stab muscle injury at 4 dpf (0 dpi). At 1.75 dpi larvae were treated with 5 mM Mtz, a dosing that specifically ablated 77.94% of mmp9^+/mpeg^+-macrophages present in the injury zone (FIG. 10b-d). Specific ablation of these cells led to a significant skeletal muscle repair deficit (FIG. 3p-q) and a severe reduction in muscle stem cell proliferation to levels similar to those evident upon mpeg^+-dwelling macrophage ablation, documented above (FIG. 2f-h, FIG. 3r, FIG. 10e-g). Collectively, these analyses indicate that Cluster 2 contains a specific mmp9^+ muscle stem cell-associated, dwelling macrophage subset required for muscle stem cell proliferation during muscle regeneration

“Also recorded” adds a separate entry of the source.

Regarding `CCCCOCCOc1ccc(-c2ccc3c(c2)/C=C(/C(=O)Nc2ccc([S@@+]([O-])Cc4cncn4CCC)cc2)CCCN3CC(C)C)cc1` [CVC, cenicriviroc, reference compound], the “muscle regeneration (birefringence)” value in data set [1] is recorded as “marked regeneration deficit; also recorded: highly significant regeneration deficit”. Moreover, in the data set with PAX7+ satellite cells, the “effect on macrophage-stimulated satellite cell proliferation” value is “a response that is inhibited; also recorded: reduced satellite cell proliferation in MB+MΦ culture conditions to levels evident in MB alone or MB+3T3 cultures” and the “effect on NAMPT-stimulated satellite cell proliferation” value is “pro-proliferative response is abolished; also recorded: an effect that was abolished”. Further, the “effect on NAMPT-induced myoblast proliferation” value with C2C12 myoblasts was “abolishes NAMPT's pro-proliferative response; also recorded: proliferative response was blocked”. Besides, the “wound site muscle stem cell proliferation” value in data set [2] was “proliferation is inhibited by CVC addition; also recorded: resulted in a proliferation deficit; also recorded: reduction in the proliferation of pax3a^+ myogenic stem cells; also recorded: reduction in the proliferation of par3a^+ myogenic stem cells”.
Consider `N#CN=C(NCCCCCCOc1ccc(Cl)cc1)Nc1ccncc1` [GMX1778, reference compound], for which the “larval NAD+/NADH levels” value with Nampt was “severe reduction in larval NAD^+/NADH levels”. For the same molecule, in the data set with C2C12 myoblasts (6 h in growth media), the “myoblast proliferation, factor added alone” value was “no negative effect on the basal level of C2C12 proliferation”. For the same molecule, the “effect on NAMPT-induced myoblast proliferation” value with C2C12 myoblasts was “does not impact its effect on myoblast proliferation; also recorded: did not affect the increased myoblast proliferation”. Further, in data set [2], the “wound site muscle stem cell proliferation” value is given as “had no effect on muscle stem cell proliferation in the injury zone; also recorded: did not alter muscle stem cell proliferation”.
`Cc1ncc([N+](=O)[O-])n1CCO` [Mtz, metronidazole]: in the data set on macrophages (5 mM Mtz), the “time to start of macrophage ablation after Mtz addition” value is 3 h. Further, in the data set on macrophages (5 mM Mtz for 24 h from 4 dpf, trunk macrophages at 5 dpf), the macrophage ablation turned out to be 77%. Further, the “time until majority of trunk macrophages ablated” value in the data set with macrophages (Mtz) fell in the range of 10 to 13 h. Further, in the data set with larval zebrafish, the “lethality, needle stab injured larvae” value is given as “significant lethality” and the “tolerability, uninjured larvae” value is “able to tolerate”. Besides, the “ablation of mmp9+/mpeg+ macrophages” value in the data set with mmp9+/mpeg+ macrophages (5 mM Mtz at 1.75 dpi) is recorded as 77.94%. In the data set with mmp9+/mpeg+ macrophages (Mtz treated), the “number of mmp9+/mpeg+ macrophages in injury zone” value is on record as 2.18±1.19 and the “number of mmp9-/mpeg+ macrophages in injury zone” value stood at 6.65±1.50.
As for maraviroc [MVC, reference compound], in data set [1], the “muscle regeneration (birefringence)” value is given as “marked regeneration deficit; also recorded: highly significant regeneration deficit”. Moreover, in the data set with PAX7+ satellite cells, the “effect on macrophage-stimulated satellite cell proliferation” value was “pro-proliferative response is abolished” and the “effect on NAMPT-stimulated satellite cell proliferation” value is “an effect that was abolished”. Besides, the “effect on NAMPT-induced myoblast proliferation” value in the data set on C2C12 myoblasts is on record as “abolishes NAMPT's pro-proliferative response; also recorded: proliferative response was blocked”. For the same molecule, in data set [2], the “wound site muscle stem cell proliferation” value was “reduction in the proliferation of pax3a^+ myogenic stem cells; also recorded: reduction in the proliferation of par3a^+ myogenic stem cells”.
